Reference: US9232799B2, “N-[(het)arylethyl)] pyrazole(thio)carboxamides and their heterosubstituted analogues” (BAYER INTELLECTUAL PROPERTY GMBH, priority 2010, dated 2016)

How the values were obtained:
Leptosphaeria nodorum = experiment: In vivo preventive test on Leptosphaeria nodorum (wheat); conditions: 500 ppm of active ingredient, evaluated 7-9 days after inoculation
Excerpt: One day after this treatment, the plants are inoculated with an aqueous spore suspension of Leptosphaeria nodorum.

Pyrenophora teres = experiment: In vivo preventive test on Pyrenophora teres (barley); conditions: 500 ppm of active ingredient, evaluated 7-9 days after inoculation
Excerpt: One day after this treatment, the plants are inoculated with an aqueous spore suspension of Pyrenophora teres.

Sphaerotheca fuliginea = experiment: In vivo preventive test on Sphaerotheca fuliginea (cucumber); conditions: 500 ppm of active ingredient, evaluated 7 days after inoculation
Excerpt: One day after this treatment, the plants are inoculated with an aqueous spore suspension of Sphaerotheca fuliginea.

aflatoxines production = experiment: microbe, parasite or virus in culture; type: cell-based, Aspergillus parasiticus; conditions: 50 μM
Fusarium graminearum = experiment: microbe, parasite or virus in culture; type: cell-based; conditions: 50 μM
Alternaria solani = experiment: In vivo preventive test on Alternaria solani (tomato); conditions: 500 ppm of active ingredient, evaluated 7 days after inoculation
Excerpt: One day after this treatment, the plants are inoculated with an aqueous spore suspension of Alternaria solani.

[1] = logP by HPLC on reversed-phase column (C 18), EEC Directive 79/831 Annex V.A8; type: physicochemical
Description: In table 1, the logP values were determined in accordance with EEC Directive 79/831 Annex V.A8 by HPLC (High Performance Liquid Chromatography) on a reversed-phase column (C 18), using the method described below: Temperature: 40° C.; […]

`CC(CN(C(=S)c1c(C(F)F)nn(C)c1F)C1CC1)c1ccccc1` (stereo not drawn) [Example 15] showed an Efficacy (Leptosphaeria nodorum) of 100%, an Efficacy (Pyrenophora teres) of 100% and an Efficacy (Sphaerotheca fuliginea) of 100%. The “% Inhibition of Aflatoxin at 50 μM” value (aflatoxines production) was 100%, the “% Inhibition of fungal growth at 50 μM” value (Fusarium graminearum) was 83% and the Efficacy (Alternaria solani) was 90%. The logP [1] was 3.92.

With `CC(Cc1ccc(Cl)cc1Cl)NC(=O)c1c(C(F)F)nn(C)c1Cl` (stereo not drawn) [Example 68] the Efficacy (Pyrenophora teres) was 100%, the Efficacy (Sphaerotheca fuliginea) was 99% and the “% Inhibition of Aflatoxin at 50 μM” value (aflatoxines production) was 100%. The “% Inhibition of fungal growth at 50 μM” value (Fusarium graminearum) was 100%, the Efficacy (Alternaria solani) was 95% and the logP [1] was 3.67.

With `Cn1nc(C(F)F)c(C(=O)N(C[Si](C)(C)c2ccsc2)C2CC2)c1F` [Example 248] the Efficacy (Leptosphaeria nodorum) was 94%, the Efficacy (Pyrenophora teres) was 100% and the “% Inhibition of Aflatoxin at 50 μM” value (aflatoxines production) was 100%. For the same compound, the “% Inhibition of fungal growth at 50 μM” value (Fusarium graminearum) was 100%, the Efficacy (Alternaria solani) was 94% and the logP [1] was 3.55.

For `Cn1nc(C(F)F)c(C(=O)NCC(C)(C)c2ccc(Cl)cc2Cl)c1F` [Example 87], the Efficacy (Leptosphaeria nodorum) was 70%, the Efficacy (Pyrenophora teres) was 94% and the “% Inhibition of Aflatoxin at 50 μM” value (aflatoxines production) was 100%. For the same compound, the “% Inhibition of fungal growth at 50 μM” value (Fusarium graminearum) was 94%, the Efficacy (Alternaria solani) was 95% and the logP [1] was 3.81.

For `CC(CN(C(=S)c1c(C(F)F)nn(C)c1Cl)C1CC1)c1ccccc1` (stereo not drawn) [Example 16], the Efficacy (Leptosphaeria nodorum) was 95%, the Efficacy (Pyrenophora teres) was 100% and the Efficacy (Alternaria solani) was 95%. The logP [1] was 4.11.

For `Cn1nc(C(F)F)c(C(=O)NC2CC2c2ccccc2C(F)(F)F)c1F` (stereo not drawn) [Example 225], the Efficacy (Pyrenophora teres) was 100%, the Efficacy (Sphaerotheca fuliginea) was 80% and the “% Inhibition of Aflatoxin at 50 μM” value (aflatoxines production) was 97%. The “% Inhibition of fungal growth at 50 μM” value (Fusarium graminearum) was 83%, the Efficacy (Alternaria solani) was 95% and the logP [1] was 3.00.

With `Cn1nc(C(F)F)c(C(=O)NCC(C)(C)c2cc(Cl)ccc2Cl)c1Cl` [Example 101] the Efficacy (Pyrenophora teres) was 70%, the Efficacy (Sphaerotheca fuliginea) was 83% and the “% Inhibition of Aflatoxin at 50 μM” value (aflatoxines production) was 100%. For the same compound, the “% Inhibition of fungal growth at 50 μM” value (Fusarium graminearum) was 86%, the Efficacy (Alternaria solani) was 100% and the logP [1] was 3.89.

With `CC(Cc1c(F)cccc1F)N(C(=S)c1c(C(F)F)nn(C)c1F)C1CC1` (stereo not drawn) [Example 28] the Efficacy (Leptosphaeria nodorum) was 95%, the Efficacy (Pyrenophora teres) was 100% and the Efficacy (Sphaerotheca fuliginea) was 100%. The Efficacy (Alternaria solani) was 90% and the logP [1] was 3.94.

`Cn1nc(C(F)F)c(C(=O)N(C2CC2)C2CCCCC2(C)c2ccccc2)c1F` (mixture of isomers) [Example 218] showed an Efficacy (Leptosphaeria nodorum) of 95%, an Efficacy (Pyrenophora teres) of 100% and an Efficacy (Sphaerotheca fuliginea) of 94%. The “% Inhibition of Aflatoxin at 50 μM” value (aflatoxines production) was 100%, the “% Inhibition of fungal growth at 50 μM” value (Fusarium graminearum) was 99% and the Efficacy (Alternaria solani) was 70%.

In the case of `CC(Cc1ccccc1F)N(C(=O)c1c(C(F)F)nn(C)c1F)C1CC1` (stereo not drawn) [Example 19], the Efficacy (Leptosphaeria nodorum) is reported as 70%, the Efficacy (Pyrenophora teres) is reported as 100% and the “% Inhibition of Aflatoxin at 50 μM” value (aflatoxines production) is reported as 100%. The “% Inhibition of fungal growth at 50 μM” value (Fusarium graminearum) was 100%, the Efficacy (Alternaria solani) was 100% and the logP [1] was 3.37.

In the case of `Cc1scc(CCNC(=O)c2c(C(F)F)nn(C)c2F)c1C` [Example 167], the Efficacy (Pyrenophora teres) is reported as 100%, the Efficacy (Sphaerotheca fuliginea) is reported as 90% and the “% Inhibition of Aflatoxin at 50 μM” value (aflatoxines production) is reported as 100%. For the same compound, the “% Inhibition of fungal growth at 50 μM” value (Fusarium graminearum) was 100%, the Efficacy (Alternaria solani) was 100% and the logP [1] was 2.82.

For `CN(CCc1cc(Cl)ccc1Cl)C(=S)c1c(C(F)F)nn(C)c1F` [Example 96], the Efficacy (Leptosphaeria nodorum) was 90%, the Efficacy (Pyrenophora teres) was 100% and the “% Inhibition of Aflatoxin at 50 μM” value (aflatoxines production) was 100%. The “% Inhibition of fungal growth at 50 μM” value (Fusarium graminearum) was 82%, the Efficacy (Alternaria solani) was 95% and the logP [1] was 3.87.

In the case of `Cn1nc(C(F)F)c(C(=O)N(C2CC2)C2CCCCC2c2ccccc2Cl)c1F` (stereo not drawn) [Example 216], the Efficacy (Pyrenophora teres) is reported as 95%, the Efficacy (Sphaerotheca fuliginea) is reported as 100% and the “% Inhibition of Aflatoxin at 50 μM” value (aflatoxines production) is reported as 100%. For the same compound, the “% Inhibition of fungal growth at 50 μM” value (Fusarium graminearum) was 84%, the Efficacy (Alternaria solani) was 71% and the logP [1] was 4.49.

In the case of `Cn1nc(C(F)F)c(C(=O)NC2CC2c2cccc(F)c2)c1F` (stereo not drawn) [Example 222], the Efficacy (Leptosphaeria nodorum) is reported as 90%, the Efficacy (Pyrenophora teres) is reported as 100% and the “% Inhibition of Aflatoxin at 50 μM” value (aflatoxines production) is reported as 99%. The “% Inhibition of fungal growth at 50 μM” value (Fusarium graminearum) was 81% and the logP [1] was 2.59.
